The term IC50 denotes the point on the concentration scale where inhibition reaches its midpoint.

The test system of series [1] is KP4. The experiment in a line: Cell viability assay (CellTiter Glo), pancreatic ductal adenocarcinoma KP4. The series is classed as cell-based, human. Conditions: Homo sapiens, KP-4, 96 h, pancreatic cancer cell line KP4, 96 hours, CellTiter Glo; read-out: IC50 μM KP4. Put shortly:
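Luminescent ATP readout (CellTiter Glo) after 96 h compound exposure, normalized to DMSO-treated cells as maximum. Compounds ran in duplicate, nine 3-fold steps from 30 μM down to 4.6 nM, final DMSO ≤0.25%; KP4 plated overnight at 1,000–10,000 cells/well. Outputs: IC50, relative IC50 or % top inhibition.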
For orientation: In ATP-based viability assays light output follows the ATP content of the culture.

Series [2] is described as follows: Whole blood stability, human. The series is classed as in vitro ADME. The source says: (§1) The results of the assay on stability in blood and IC50 values for pancreatic cancer cell line KP4 are given below in Table 24.
A short description of series [3]: Whole blood stability, mouse. The format is in vitro ADME.
Description: as §1

For the compound `C#CCOC(=O)c1ccc([C@@H]2c3[nH]c4ccccc4c3C[C@H](C(=O)OC)N2C(=O)CCl)cc1` [BXa], the IC50 in series [1] fell in the range of 0.01 to 0.1 µM. In addition, the “Whole Blood Stability % Remaining at 37° C. Human” value in series [2] (0 min) is recorded as 100.0%; in series [2] (30 min), 95.7%; in series [2] (60 min), 46.8%. In addition, the “Whole Blood Stability % Remaining at 37° C. Mouse” value in series [3] (0 min) was determined as 100.0%; in series [3] (30 min), 0.0%; in series [3] (60 min), 0.0%.
Consider `CN(C)C(=O)c1ccc([C@@H]2c3sc4ccccc4c3C[C@H](C(=O)N(C)C)N2C(=O)CCl)cc1` [Compound 55a], for which the IC50 in series [1] was in the range of 0.5 to 1 µM. Further, the “Whole Blood Stability % Remaining at 37° C. Human” value in series [2] (0 min) stood at 100.0%; in series [2] (30 min), 42.6%; in series [2] (60 min), 16.7%. In addition, the figures for the “Whole Blood Stability % Remaining at 37° C. Mouse” value in series [3] (0 min), in series [3] (30 min) and in series [3] (60 min) were 100.0%, 82.3% and 60.4%, respectively.
On to `CN(C)C(=O)[C@H]1Cc2c([nH]c3ccccc23)[C@H](c2ccc(C(=O)N(CCC(=O)OC(C)(C)C)C(C)(C)C)cc2)N1C(=O)CCl` [Compound 54], for which the IC50 in series [1] was in the range of 0.01 to 0.1 µM. The “Whole Blood Stability % Remaining at 37° C. Human” value is 100.0% in series [2] (0 min), 44.9% in series [2] (30 min) and 40.4% in series [2] (60 min). Besides, the “Whole Blood Stability % Remaining at 37° C. Mouse” value in series [3] (0 min) was determined as 100.0%; in series [3] (30 min), 42.9%; in series [3] (60 min), 13.8%.
Regarding `COC(=O)[C@H]1Cc2c([nH]c3ccccc23)[C@H](c2ccc(OC(C)=O)cc2)N1C(=O)CCl` [Compound 12], the IC50 in series [1] is 0.01 to 0.1 µM. Moreover, the “Whole Blood Stability % Remaining at 37° C. Human” value in series [2] (0 min) is 100.0%; in series [2] (30 min), 0.0%; in series [2] (60 min), 0.1%. Besides, the “Whole Blood Stability % Remaining at 37° C. Mouse” value worked out at 100.0% in series [3] (0 min), 0.0% in series [3] (30 min) and 0.0% in series [3] (60 min).
In the case of `COC(=O)c1ccc([C@H]2c3sc4ccccc4c3C[C@H](C(=O)OC)N2C(=O)CCl)cc1` [Example 55c], in series [1], the IC50 lay in the range of 0.01 to 0.1 µM. The entries for the “Whole Blood Stability % Remaining at 37° C. Human” value in series [2] (0 min), in series [2] (30 min) and in series [2] (60 min) were 100.0%, 46.0% and 27.5%, respectively. For the same compound, the “Whole Blood Stability % Remaining at 37° C. Mouse” value in series [3] (0 min) stood at 100.0%; in series [3] (30 min) it was 0.0%; in series [3] (60 min) it was 0.0%.
Regarding `COC(=O)c1ccc([C@H]2c3[nH]c4c(Br)cccc4c3C[C@H](C(=O)OC)N2C(=O)CCl)cc1` [Compound 97], in series [1], the IC50 is under 0.01 µM. Besides, the “Whole Blood Stability % Remaining at 37° C. Human” value stood at 100.0% in series [2] (0 min), 69.6% in series [2] (30 min) and 44.1% in series [2] (60 min). Besides, the results for the “Whole Blood Stability % Remaining at 37° C. Mouse” value in series [3] (0 min), in series [3] (30 min) and in series [3] (60 min) were 100.0%, 0.0% and 0.0%, respectively.
`CN(C)C(=O)[C@H]1Cc2c([nH]c3ccccc23)[C@H](c2ccc(NC(=O)OC(C)(C)C)cc2)N1C(=O)CCl` [Compound 56]: the IC50 in series [1] fell in the range of 0.01 to 0.1 µM. The “Whole Blood Stability % Remaining at 37° C. Human” value in series [2] (0 min) came out at 100.0%; in series [2] (30 min), 59.3%; in series [2] (60 min), 60.7%. Moreover, the “Whole Blood Stability % Remaining at 37° C. Mouse” value in series [3] (0 min) is 100.0%; in series [3] (30 min) it was 84.1%; in series [3] (60 min) it was 38.9%.
On to `CN(C)C(=O)[C@H]1Cc2c([nH]c3ccccc23)[C@H](c2ccc(S(=O)(=O)C(C)(C)C)cc2)N1C(=O)CCl` [Compound 68], for which the IC50 in series [1] was 0.01 to 0.1 µM. The “Whole Blood Stability % Remaining at 37° C. Human” value in series [2] (0 min) turned out to be 100.0%; in series [2] (30 min), 36.8%; in series [2] (60 min) it was 20.6%. Besides, the “Whole Blood Stability % Remaining at 37° C. Mouse” value in series [3] (0 min) amounted to 100.0%; in series [3] (30 min), 65.0%; in series [3] (60 min), 36.9%.
Turning to `COC(=O)[C@H]1Cc2c([nH]c3ccccc23)[C@H](c2ccc(C(=O)OCC3CC3)cc2)N1C(=O)CCl` [Compound 75], the concentration for half-maximal inhibition (IC50) in series [1] was under 0.01 µM. Besides, the results for the “Whole Blood Stability % Remaining at 37° C. Human” value in series [2] (0 min), in series [2] (30 min) and in series [2] (60 min) were 100.0%, 68.1% and 41.5%, respectively. In addition, the results for the “Whole Blood Stability % Remaining at 37° C. Mouse” value in series [3] (0 min), in series [3] (30 min) and in series [3] (60 min) were 100.0%, 1.8% and 0.9%, respectively.
As to `COC(=O)c1cccc([C@H]2c3[nH]c4ccccc4c3C[C@H](C(=O)OC)N2C(=O)CCl)c1` [Compound 100], in series [1], the half-maximal inhibitory concentration (IC50) is under 0.01 µM. Besides, the “Whole Blood Stability % Remaining at 37° C. Human” value in series [2] (0 min) was 100.0%; in series [2] (30 min), 60.9%; in series [2] (60 min), 44.3%. Moreover, the “Whole Blood Stability % Remaining at 37° C. Mouse” value in series [3] (0 min) was 100.0%; in series [3] (30 min) it was 35.8%; in series [3] (60 min), 10.8%.
For the compound `COC(=O)[C@H]1Cc2c([nH]c3ccccc23)[C@H](c2ccc(C(=O)OC(C)(C)C)cc2)N1C(=O)/C=C/CCl` [Compound 25], in series [1], the IC50 lay in the range of 0.1 to 0.5 µM. In addition, the “Whole Blood Stability % Remaining at 37° C. Human” value is on record as 100.0% in series [2] (0 min), 55.0% in series [2] (30 min) and 51.9% in series [2] (60 min). Moreover, the “Whole Blood Stability % Remaining at 37° C. Mouse” value in series [3] (0 min) came to 100.0%; in series [3] (30 min), 46.2%; in series [3] (60 min), 24.4%.
On to `COC(=O)[C@H]1Cc2c([nH]c3ccccc23)[C@H](c2ccc(C(=O)OC(C)(C)C)cc2)N1C(=O)C(C)Cl` (stereo partly drawn) [Compound 33], for which the 50% inhibitory concentration (IC50) in series [1] was over 1 µM. Moreover, the “Whole Blood Stability % Remaining at 37° C. Human” value came to 100.0% in series [2] (0 min), 104.7% in series [2] (30 min) and 103.8% in series [2] (60 min). Moreover, the “Whole Blood Stability % Remaining at 37° C. Mouse” value in series [3] (0 min) was found to be 100.0%; in series [3] (30 min) it was 78.9%; in series [3] (60 min), 69.3%.
As for `COC(=O)[C@H]1Cc2c([nH]c3ccccc23)[C@H](c2ccc(S(=O)(=O)N3CCC(O)CC3)cc2)N1C(=O)CCl` [Compound 35], the IC50 in series [1] lay in the range of 0.01 to 0.1 µM. Besides, the “Whole Blood Stability % Remaining at 37° C. Human” value in series [2] (0 min) is given as 100.0%; in series [2] (30 min), 39.3%; in series [2] (60 min), 20.5%. Also, the “Whole Blood Stability % Remaining at 37° C. Mouse” value in series [3] (0 min) is recorded as 100.0%; in series [3] (30 min), 32.9%; in series [3] (60 min), 14.8%.
With `CC(C)(C)OC(=O)c1ccc([C@H]2c3[nH]c4ccccc4c3C[C@H](C(=O)OC(C)(C)C)N2C(=O)CCl)cc1` [Compound 19], the IC50 in series [1] was under 0.01 µM. For the same compound, the “Whole Blood Stability % Remaining at 37° C. Human” value was found to be 100.0% in series [2] (0 min), 44.4% in series [2] (30 min) and 35.6% in series [2] (60 min). Also, the results for the “Whole Blood Stability % Remaining at 37° C. Mouse” value in series [3] (0 min), in series [3] (30 min) and in series [3] (60 min) were 100.0%, 44.5% and 21.2%, respectively.
With `COC(=O)[C@H]1Cc2c([nH]c3ccccc23)[C@H](c2ccc(N[C@]34CC5C[C@H](C[C@H](C5)C3)C4)cc2)N1C(=O)CCl` [Compound 29], the IC50 in series [1] was under 0.01 µM. Besides, the “Whole Blood Stability % Remaining at 37° C. Human” value was 100.0% in series [2] (0 min), 67.3% in series [2] (30 min) and 49.2% in series [2] (60 min). The results for the “Whole Blood Stability % Remaining at 37° C. Mouse” value in series [3] (0 min), in series [3] (30 min) and in series [3] (60 min) were 100.0%, 61.9% and 51.1%, respectively.
Regarding `COC(=O)c1ccc([C@H]2c3[nH]c4ccccc4c3C[C@H](C(=O)OC(C)(C)C)N2C(=O)CCl)cc1` [Compound 2], the IC50 in series [1] lay in the range of 0.01 to 0.1 µM. For the same compound, the entries for the “Whole Blood Stability % Remaining at 37° C. Human” value in series [2] (0 min), in series [2] (30 min) and in series [2] (60 min) were 100.0%, 58.5% and 39.4%, respectively. The “Whole Blood Stability % Remaining at 37° C. Mouse” value in series [3] (0 min) is 100.0%; in series [3] (30 min), 0.1%; in series [3] (60 min), 0.1%.
On to `COC(=O)c1ccc([C@H]2c3c(c4ccccc4n3C)C[C@H](C(=O)OC)N2C(=O)CCl)cc1` [Compound 72], for which, in series [1], the IC50 lay within 0.01 to 0.1 µM. The “Whole Blood Stability % Remaining at 37° C. Human” value was 100.0% in series [2] (0 min), 28.0% in series [2] (30 min) and 7.0% in series [2] (60 min). Further, the “Whole Blood Stability % Remaining at 37° C. Mouse” value in series [3] (0 min) amounted to 100.0%; in series [3] (30 min), 0.0%; in series [3] (60 min) it was 0.2%.
Take `CC(C)(C)OC(=O)c1ccc([C@H]2c3[nH]c4ccccc4c3C[C@H](CO)N2C(=O)CCl)cc1` [Example 63a]: the IC50 in series [1] was over 1 µM. Moreover, the “Whole Blood Stability % Remaining at 37° C. Human” value in series [2] (0 min) stood at 100.0%; in series [2] (30 min) it was 35.0%; in series [2] (60 min), 13.2%. Besides, the results for the “Whole Blood Stability % Remaining at 37° C. Mouse” value in series [3] (0 min), in series [3] (30 min) and in series [3] (60 min) were 100.0%, 4.5% and 0.0%, respectively.

Values taken from patent US11098040B2, “Compounds and methods of use” (Ferro Therapeutics, Inc., priority 2018, dated 2021).
